As usually defined, the TGI is the concentration at which net growth stops. The term GI50 denotes the concentration that inhibits growth by half. The IC50 is the midpoint of a concentration-inhibition curve.

The subject of series [1] is non-malignant mammary-gland-derived (184B5) cell line. Put plainly: MTT cell viability assay, 72 h, 184B5. In kind it is cell-based. Particulars: 184B5, 72 h; for GI50: Homo sapiens. On the procedure: (§1) The novel synthetic compounds VA2J, VA4J, VA6G, VA6H, VA6I and VA6J were tested in breast adenocarcinoma (MCF-7) and non-malignant mammary-gland-derived (184B5) cell lines to be able to establish their potency and selectivity. The reference drug used was methylseleninic acid (MSA) as a Se-containing structure with promising in vitro and in vivo results against different tumour types. Results are expressed as the concentration that inhibits 50% cell growth (GI50), the concentration that inhibits completely cell growth (TGI) and the concentration that kills 50% of cells (LD50). The selectivity index (SI) is calculated as GI50(184B5)/GI50(MCF-7).
(§2) Cell lines were purchased from the American Type Culture Collection (ATCC, Barcelona, Spain). MCF7 cell lines were grown in Roswell Park Memorial Institute (RPMI) medium (Gibco, Madrid, Spain) supplemented with 10% fetal bovine serum (FBS; Gibco), 100 units/mL penicillin and […] (Gibco, Madrid, Spain). 184B5 cells were grown in DMEM/F12 medium supplemented with 5% FBS, 1x ITS (Lonza, Barcelona, Spain), 100 nM hydrocortisone (Sigma Aldrich, Madrid, Spain), 2 mM sodium pyruvate (Lonza), 20 ng/mL EGF (Sigma Aldrich, Madrid, Spain), 0.3 nM trans-retinoic acid (Sigma-Aldrich) 100 units/mL penicillin and […]. Cells were maintained at 37 °C and 5% CO2.
(§3) Compounds were dissolved in DMSO at a concentration of 0.01 M. Serial dilutions were prepared with non-supplemented medium. The cytotoxic effect of each compound was tested at eight different concentrations ranging between 0.01 and 100 µM.
(§4) A total of 10^4 cells/well in 96 well-plates were treated with either DMSO or increasing concentrations of the corresponding compound for 72 h and cell viability was determined using the MTT (3-(4,5-dimethylthiazol-2-yl)-2,5-diphenyltetrazolium bromide) (Sigma Aldrich, Madrid, Spain) assay. Briefly, cells were incubated with 50 µL of MTT (2 mg/mL stock) for 4 h. The medium was then removed by aspiration and the formazan crystals were dissolved in 150 µL of DMSO. The absorbance was measured at 550 nm in a microplate reader (Sunrise, Tecan, Männedorf, Switzerland). […] Data were obtained from at least three independent experiments performed in quadruplicate.

A short description of series [2]: Thermogravimetric (TG) analysis of thermal stability. It is filed as physicochemical. Particulars: for TG To (Tonset of thermal degradation): nitrogen, 50 to 350 °C. On the procedure:
The thermogravimetric (TG) studies were carried out with a Perkin–Elmer TGA-7 (Perkin Elmer, Inc. Watham, MA, USA) which was calibrated with alumel and nickel at 10 °C·min^−1. The calibration of the oven temperatures was carried out automatically and mass calibrated with a certified sample of 10 mg (ASTM E617, provided by Perkin Elmer, Inc. Watham, MA, USA). TG analyses were performed under a nitrogen atmosphere with a gas flow of 40 mL·min^−1, from 50 to 350 °C, at a heating rate of 10 °C·min^−1, using a sample of approximately 3 mg, in order to obtain the values of the Tonset and Tmax of the degradation process as well as any associated mass loss.

For series [3], the system named is breast adenocarcinoma (MCF-7) cell line. Put plainly: MTT cell viability assay, 72 h, MCF-7. In kind it is cell-based, human. Particulars: for SI (selectivity index): GI50(184B5)/GI50(MCF-7); for TGI / LD50 / GI50: MCF-7, 72 h, MTT; for TGI: concentration that completely inhibits cell growth; for LD50: concentration that kills 50% of cells; for GI50: concentration that inhibits 50% cell growth. On the procedure:
as §1, §2, §3, §4
A general note: Formazan colour is commonly taken as a measure of viable cells.

The nature of series [4]: DSC successive melting-recrystallization cycles, polymorphic behaviour. It is filed as physicochemical. Details: key: I: Compounds that show a polymorphic phase transition into an amorphous or mainly amorphous solid form after a first melting–cooling scan; II: Compounds that change into a new polymorphic form with a different Tonset of fusion than the one observed at the first melting–recrystallization scan after cooling; III: These compounds show a fusion process without modifications in the thermal behaviour after an initial fusion–recrystallization cycle; IV: Compounds that show recrystallization or other types of phase transition of the original form into another crystalline one in the first heat scan; V: Compounds without fusion processes at the range of temperatures studied; *: fusion with decomposition. Particulars: 10 °C/min. On the procedure:
To establish general polymorphic behaviours, samples of all the compounds synthetized (Figure 1) were exposed to successive cycles of melting–recrystallization using DSC. Calorimetric analyses were performed before the beginning of the degradation process (Table 6). […] This behaviour was shown by several compounds: VA1C, VA2E, VA8E, series H, VA6I, VA8J, VA6M and VA8M. DSC and PXRD results of compound VA7H are shown as supplementary material (Figures S1 and S2 and Table S1). • Behaviour II—Compounds that change into a new polymorphic form with a different Tonset of fusion than the one observed at the first melting–recrystallization scan after cooling. These compounds are VA7E and VA8O. DSC and PXRD results of compound VA7E are shown as supplementary material (Figures S3 and S4, Table S2). • Behaviour III—These compounds show a fusion process without modifications in the thermal behaviour after an initial fusion–recrystallization cycle. Consequently, there is no evidence of polymorphic behaviour. The compounds VA2C, VA2M, VA4J and VA5O belong to this group. DSC and PXRD results of compound VA2M are shown as supplementary material (Figures S5 and S6, Table S3). • Behaviour IV—Compounds that show recrystallization or other types of phase transition of the original form into another crystalline one in the first heat scan. In the successive cycles of melting–recrystallization, the new form may not alter its crystalline form or transit to another polymorphic form. Compounds VA6E, VA7J and VA7M show this behaviour. • Behaviour V—Compounds without fusion processes at the range of temperatures studied.
For calorimetric studies a Perkin–Elmer DSC diamond calibrated with indium and zinc (provided by Perkin–Elmer (Perkin Elmer, Inc. Watham, MA, USA) and fabricated according to guideline ISO35) at 10 °C·min^−1 and nitrogen flow of 20 mL·min^−1 was employed. The gas connected to the equipment was nitrogen with a purity of 99.999%. Calorimetric analyses were carried out in aluminium capsules for volatilities of 10 μL, at a heating rate of 10 °C·min^−1, using a sample of approximately 3 mg, in order to establish the Tonset, Tmax and the enthalpy of fusion ∆Hf.
The calorimetric analyses started with the study of the thermal behaviour of the compounds before the process of degradation in order to evidence the possible existence of polymorphism. For this preliminary study, samples of all the compounds were exposed to successive cycles of heating–cooling. All samples were heated from 50 °C to temperatures 15–20 °C below Tonset of the degradation process, in order to ensure that compounds were not degraded (Table 6). After melting the samples, they were left at room temperature for enough time to allow the compounds to recrystallize before the successive thermal process. Additional cycles of heating–cooling were performed if polymorphism was detected.

The nature of series [5]: Stability after stress conditions by HPLC/UV-DAD. In kind it is physicochemical. Particulars: 0, 4 and 24 h; for Stability to oxidation: H2O2 3%; for Stability to acid hydrolysis: HCl 1 M; for Stability to basic (alkaline) hydrolysis: NaOH 0.1 M. On the procedure: The stability of compounds VA4J (without polymorphic behaviour) and VA6E and VA7J (with polymorphic behaviour) was investigated after the application of diverse stress conditions: acid hydrolysis (HCl 1 M), basic hydrolysis (NaOH 0.1 M) and oxidation (H2O2 3%). Chromatographic studies using HPLC/UV-DAD were performed with this purpose.
Chromatographic studies were performed using an HPLC/UV-DAD (HP 1200, Agilent Technologies. Santa Clara, CA, USA) with a C18 column (Gemini-NX 150 × 4.6 mm, 5 µm) from Phenomenex (Phenomenex. Torrance, CA, USA). The mobile phase was a mixture of acetonitrile/water (80:20; v/v) for compound VA4J, (50:50; v/v) for VA6E and (80:20, 0.1% formic acid; v/v) for compound VA7J. The injection volume was 50 µL and the flow rate was 1 mL/min. Chromatography was performed at 35 °C. UV-DAD detection was established at λ = 254 nm.
For stability evaluation in stress conditions, working solutions of 47.6 µg/mL were prepared by diluting 20 µL of each standard solution in 200 µL of acetonitrile and 200 µL of (a) 1 M HCl, (b) 0.1 M NaOH and (c) 3% H2O2. Data were recorded at zero time and after 4 and 24 h of exposure.

The subject of series [6] is 1205Lu (melanoma), A549 (lung), DU145 (prostate), HCT116 (colon), PANC-1 (pancreas) and BxPC3 (pancreas). Details: method as in PMID 26922233. Particulars: all six cell lines, even at short time points; MTT conditions slightly different; cited from earlier work.

In series [1], `Cl.N=C(N)Sc1nc2ccccc2nc1S` [VA2J, 3-Mercaptoquinoxalin-2-yl Carbamimidothioate Hydrochloride] registered an LD50 of 20.48 µM, a TGI of 15.97 µM and a GI50 of 12.5 µM. Moreover, the “TG To (Tonset of thermal degradation)” value in series [2] (10 °C/min) was 199.2 °C. In series [3], the “SI (selectivity index)” value came to 5.66, the total growth inhibition concentration (TGI) worked out at 13.90 µM and the LD50 amounted to 44.02 µM. In addition, the “DSC Behaviour (polymorphic/calorimetric behaviour)” value in series [4] was “*”.

`CSc1nc2ccccc2nc1SC` [VA4J, 2,3-Bis(methylsulfanyl)quinoxaline]: in series [5], the Stability to oxidation entry is recorded as “stable”, the “Stability to acid hydrolysis” value is reported as “stable” and the “Stability to basic (alkaline) hydrolysis” value is recorded as “stable”. Besides, in series [1], the LD50 is more than 100 µM, the TGI was more than 100 µM and the GI50 amounted to 52.5 µM. The “TG To (Tonset of thermal degradation)” value in series [2] (10 °C/min) amounted to 197.42 °C. Besides, in series [2] (range 100–135 °C for VA4J, 94–108 °C for VA6E), the “TG decomposition or desolvation processes in the temperature range studied” value is given as “can be excluded”. In series [3], the “SI (selectivity index)” value amounted to 51.25, the TGI is more than 100 µM and the LD50 is more than 100 µM. In series [3] (SI of compound compared with SI of MSA), the “SI relative to MSA” value was “over 50 times”. Besides, the “DSC Behaviour (polymorphic/calorimetric behaviour)” value in series [4] is listed as “III”.

Take `N#CSCc1ccc2c(c1)C(=O)c1ccccc1C2=O` [VA6G, (9,10-Dioxo-9,10-dihydroanthracen-2-yl)methyl Thiocyanate]: in series [1], the LD50 amounted to 64.84 µM, the TGI is 34.32 µM and the GI50 is 14.3 µM. Also, in series [2] (10 °C/min), the “TG To (Tonset of thermal degradation)” value was 238.3 °C. Further, in series [3], the “SI (selectivity index)” value is 3.99, the TGI stood at 23.95 µM and the LD50 came out at 67.27 µM. Further, in series [4], the “DSC Behaviour (polymorphic/calorimetric behaviour)” value is given as “V”.

In series [1], `N#CSCc1ccc2ccccc2n1` [VA6H, Quinolin-2-ylmethyl Thiocyanate] yielded an LD50 of more than 100 µM, a TGI of 75.84 µM and a GI50 of 27.8 µM. Also, in series [2] (10 °C/min), the “TG To (Tonset of thermal degradation)” value stood at 139.1 °C. Also, in series [3], the “SI (selectivity index)” value came out at 3.25, the TGI was determined as 14.83 µM, halving of growth (GI50) required 8.53 µM and the LD50 worked out at 24.18 µM. The GI50 in series [3] (Homo sapiens, MCF7, 72 h) was less than 10 µM. In addition, the “DSC Behaviour (polymorphic/calorimetric behaviour)” value in series [4] is on record as “I”.

In series [1], `COc1cc2oc(=O)cc(CSC#N)c2cc1OC` [VA6I, (6,7-Dimethoxy-2-oxo-2H-chromen-4-yl)methyl Thiocyanate] yielded an LD50 of more than 100 µM, a TGI of more than 100 µM and a concentration for 50% growth inhibition (GI50) of 2.26 µM. In addition, the “TG To (Tonset of thermal degradation)” value in series [2] (10 °C/min) is 246.9 °C. Moreover, in series [3], the “SI (selectivity index)” value is reported as 0.50, the total growth inhibition concentration (TGI) is more than 100 µM and the LD50 is more than 100 µM. Further, the “DSC Behaviour (polymorphic/calorimetric behaviour)” value in series [4] is listed as “I”.

In series [1], `N#CSCc1nc2ccccc2nc1CSC#N` [VA6J, Quinoxalin-2,3-diyldimethanediyl Bisthiocyanate] returned an LD50 of 94.62 µM, a TGI of 69.80 µM and a GI50 of 39.8 µM. For the same compound, in series [2] (10 °C/min), the “TG To (Tonset of thermal degradation)” value was 165.0 °C. In series [3], the “SI (selectivity index)” value turned out to be 2.15, the TGI amounted to 50.55 µM and the LD50 was found to be 83.93 µM. This compound registered a GI50 in series [3] (Homo sapiens, MCF7, 72 h) of 18.5 µM. Also, in series [4], the “DSC Behaviour (polymorphic/calorimetric behaviour)” value is “*”.

Consider `N=C(N)[Se]Cc1nc2ccccc2nc1C[Se]C(=N)N` [VA7J], for which, in series [5], the Stability to oxidation entry was “totally degraded”, the “Stability to acid hydrolysis” value is “stable” and the “Stability to basic (alkaline) hydrolysis” value is given as “only a minor degradation”. For the same compound, the IC50 in series [6] is less than 10 µM. Also, the “TG debromhidration process temperature” value in series [2] (10 °C/min) stood at 173 °C. Besides, the “DSC Behaviour (polymorphic/calorimetric behaviour)” value in series [4] was “IV”.

Values taken from PMC6152329, “Antitumoural Sulphur and Selenium Heteroaryl Compounds: Thermal Characterization and Stability Evaluation” (Molecules : A Journal of Synthetic Chemistry and Natural …, 2017).
